In paper PMC10867124, “Plant root associated chitinases: structures and functions” (Frontiers in Plant Science, 2024):

T1: ZmChi19A (Zea mays, UniProt B6TR38, E147A/E169A)
T1 construct: cDNA from maize root; signal peptide removed; N-terminal 10xHis-SUMO tag kept, TEV site; CBD, catalytic domain and flexible C-terminal domain; pET28b, E. coli; FPLC-purified
T1 sequence (B6TR38 26-334 E147A/E169A limits assumed): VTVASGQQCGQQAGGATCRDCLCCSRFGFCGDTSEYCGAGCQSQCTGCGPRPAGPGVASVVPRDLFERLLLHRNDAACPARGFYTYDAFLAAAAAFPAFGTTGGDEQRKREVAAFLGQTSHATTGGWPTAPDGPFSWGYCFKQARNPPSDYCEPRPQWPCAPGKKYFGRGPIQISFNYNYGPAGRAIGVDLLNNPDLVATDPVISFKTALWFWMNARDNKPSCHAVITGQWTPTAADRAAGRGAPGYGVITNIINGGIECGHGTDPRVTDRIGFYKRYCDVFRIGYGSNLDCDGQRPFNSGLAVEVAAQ

B1: CspCh18A (Chitinophaga oryzae) (protein)
chain: CKKDEARPDNPQTKSEPRVETVTKAGGKSVCYVEVNSNSLLNTGKYTLTTGGQQLFDIAIIFAANINYNTTTGKAVLYNNPNVTNVLVNKNTQIVPLQNKGMKVLLSILGNHQGAGFCNFTSRAAAKAFAQQLADTANYYGLDGIDFDDEYADYGNNGLPQPNDSSFVMLLDELRKLMPTKIISFYYYGPAASRLSWGGKKAGDFINYSWNAMYGTYSVPNVAGLTKANLGPAAVDIQATSQSTANWLATQTKNNGYGIYLWYNLTSTDKHVYFSGVSNILYGSSVTYTP
notes: signal peptide removed; TEV site, His tag; pET28a, E. coli; TIM-barrel catalytic domain, no CBD; FPLC-purified

What was measured:
ZmChi19A = molecular target: T1, ZmChi19A; assay: 4-MU release fluorescence, relative activity; assay type: biochemical; details: SUMO fusion; catalytic residues mutated
[1] = substrate: CC(=O)N[C@H]1[C@H](Oc2ccc3c(C)cc(=O)oc3c2)O[C@H](CO)[C@@H](O[C@@H]2O[C@H](CO)[C@@H](O[C@@H]3O[C@H](CO)[C@@H](O)[C@H](O)[C@H]3NC(C)=O)[C@H](O)[C@H]2NC(C)=O)[C@@H]1O; assay: 4-MU release fluorescence, Langmuir fit; assay type: biochemical, Chitinophaga oryzae; details: 50 °C, pH 8

Molecule | 4-MU release fluorescence, relative activity (ZmChi19A) | Km [1] [µM]
CC(=O)N[C@H]1[C@H](Oc2ccc3c(C)cc(=O)oc3c2)O[C@H](CO)[C@@H](O[C@@H]2O[C@H](CO)[C@@H](O[C@@H]3O[C@H](CO)[C@@H](O)[C@H](O)[C@H]3NC(C)=O)[C@H](O)[C@H]2NC(C)=O)[C@@H]1O [4-MU-GlcNAc3] | ZmChi19A(E147A,E169A) showed almost complete loss of activity | –
B1 | – | 37
